The values below come from patent US20240043435A1, “TYK-2 INHIBITOR” (BEIGENE, LTD., priority 2020, published 2024).

Assay [1] concerns JAK2, TYK2/p-STAT4 (Tyr693) activated by IL-12 in NK-92 cell line. Kind of assay: IL-12-JAK2, TYK2/p-STAT4 (Tyr693) inhibition IC50 cellular assay. The assay is classed as cell-based. The following applies: for Selectivity fold (TYK2/JAK2): Cellular assay, pSTAT5/GM-CSF IC50 vs pSTAT4/IL-12 IC50; for IC50: NK92, Cellular assay, read-out: pSTAT4/IL-12 IC50. In outline: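 NK-92 cells were starved overnight without IL-2 and preincubated 1 h at 37° C with compound (8 doses, 10000–0.61 nM, 4-fold, 0.2% DMSO). They were then stimulated with IL-12 (40 ng/ml final) for 30 min. Lysate p-STAT4 (Tyr693) was read by AlphaLISA SureFire; IC50 from four-parameter logistic fit.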

In another assay the test system is pSTAT5/GM-CSF. The experiment in a line: pSTAT5/GM-CSF cellular assay (JAK2 selectivity). The assay is classed as cell-based.
For assay [2], the target named is T1, TYK2-JH2 (aa 575-869, in-house) protein (Homo sapiens, UniProt P29597).
T1 construct: TYK2-JH2 (aa 575-869, in-house) protein; made in house
The experiment in a line: TYK2-JH2 biochemical assay (HTRF probe displacement). Type of assay: binding. The following applies: for Selectivity fold (TYK2/JAK1): JAK1-JH2 IC50 vs TYK2-JH2 IC50; for fold less potent (orth vs meta methylsulfonyl; B15 vs B1, B14 vs B5): Tyk2 JH2 bio-chemical potency. An outline of the steps:
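Recombinant TYK2-JH2 (0.2 nM) was pre-incubated 0.5 h at room temperature with compounds (10 doses, 5-fold dilution; 500× DMSO stocks from 500 uM) in 20 mM HEPES pH 7.5, 10 mM MgCl2, 0.005% BSA, 2 mM DTT, 0.015% Brij-35. Probe displacement was read by HTRF (ex337, em620/665 nm); IC50 from four-parameter logistic fit.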
(Time-resolved FRET reads energy transfer from a long-lived donor to a nearby acceptor.)

In assay [3] the target is T2, JAK1-JH2 protein (aa 561-860, in-house) (Homo sapiens, UniProt P23458).
T2 construct: JAK1-JH2 protein (aa 561-860, in-house); made in house
The experiment in a line: JAK1-JH2 biochemical assay (HTRF probe displacement). Type of assay: binding. How it is done:
Assay B: JAK1-JH2 Biochemical Assay
Compounds disclosed herein were tested for blocking of JAK1-JH2 protein (aa 561-860, in-house) with its probe in an assay based on Homogeneous Time Resolved Fluorescence. Compound dilution is done according to the following protocol: (1) Prepare 500× compounds solution in DMSO from 500 uM by 5-fold dilution, total 10 doses were included; (2) Prepare 10× compounds solution in an assay buffer containing 20 mM HEPES, pH 7.5, 10 mM MgCl2, 0.005% BSA, 2 mM DTT, 0.015% Brij-35 by transferring 1 μl serial 500× stock solution into 49 μl assay buffer. 4 μL of 1.17 nM recombinant JAK1-JH2 protein was pre-incubated with 1 μl of 10× serial dilution of compounds at room temperature for 0.5 hour. […] The HTRF signals (ex337 nm, em620 nm/665 nm) were read on BMG PHERAstar FS instrument. The inhibition percentage of JAK1 interaction with its probe in presence of increasing concentrations of compounds was calculated based on the ratio of fluorescence at 615 nm to that at 665 nm. The IC50 for each compound was derived from fitting the data to the four-parameter logistic equation by Dotmatics.

Setting [4] is: Biochemical assay, read-out: TYK2-JH2 IC50.
The mark [5] stands for this setting: read-out: Tyk2 JH2 domain bio-chemical potency.
[6] abbreviates: pSTAT5/GM-CSF IC50 over pSTAT4/IL-12 IC50.

Read-outs that look alike come from different tables or passages of the source. Bounds are passed on as bounds.

T1 sequence (P29597 575-869): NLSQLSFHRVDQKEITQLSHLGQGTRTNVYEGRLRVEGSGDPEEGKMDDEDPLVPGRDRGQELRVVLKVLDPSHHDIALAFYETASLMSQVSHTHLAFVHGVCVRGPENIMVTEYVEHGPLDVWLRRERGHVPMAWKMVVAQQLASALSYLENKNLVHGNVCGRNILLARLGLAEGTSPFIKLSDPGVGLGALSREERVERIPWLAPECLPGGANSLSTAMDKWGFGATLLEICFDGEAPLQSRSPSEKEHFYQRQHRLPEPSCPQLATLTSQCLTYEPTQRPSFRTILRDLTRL
T2 sequence (P23458 561-860): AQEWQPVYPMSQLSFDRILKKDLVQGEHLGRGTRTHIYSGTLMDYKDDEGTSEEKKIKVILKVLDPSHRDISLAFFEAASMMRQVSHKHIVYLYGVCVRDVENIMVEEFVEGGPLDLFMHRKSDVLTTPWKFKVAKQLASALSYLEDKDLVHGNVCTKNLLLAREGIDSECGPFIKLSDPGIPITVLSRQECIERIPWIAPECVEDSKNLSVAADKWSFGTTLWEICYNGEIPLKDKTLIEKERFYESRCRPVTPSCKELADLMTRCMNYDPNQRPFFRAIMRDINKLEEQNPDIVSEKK

For `CC(=O)Nc1cc(Nc2cccc(S(C)(=O)=O)c2)c(-c2cccnn2)cn1` [Example A1, N-(4-((3-(methylsulfonyl)phenyl)amino)-5-(pyridazin-3-yl)pyridin-2-yl)acetamide], in assay [1], the “Selectivity fold (TYK2/JAK2)” value is listed as greater than 125 fold. The IC50 is 79.5 nM in assay [1], greater than 10000 nM with pSTAT5/GM-CSF, 0.052 nM in assay [2] (setting [4]) and 15 nM in assay [3]. For the same compound, the “Selectivity fold (TYK2/JAK1)” value in assay [2] (Biochemical assay) came to 288 fold.
With `CC(=O)Nc1cc(Nc2cccc(S(C)(=O)=O)c2)c(C2CCCO2)cn1` (stereo not shown) [Example A2, N-[4-[(3-methanesulfonylphenyl)amino]-5-(oxolan-2-yl)pyridin-2-yl]acetamide], in assay [2] (Biochemical assay), the “Selectivity fold (TYK2/JAK1)” value was 159 fold. Also, the figures for the IC50 in assay [2] (setting [4]) and in assay [3] were 5.2 nM and 828 nM, respectively.
Consider `CC(=O)Nc1cc(Nc2cccc(S(C)(=O)=O)c2)c(-c2cnc(C)cn2)cn1` [Example A4, N-(5-(5-methylpyrazin-2-yl)-4-((3-(methylsulfonyl)phenyl)amino)pyridin-2-yl)acetamide], for which the “Selectivity fold (TYK2/JAK1)” value in assay [2] (Biochemical assay) worked out at 113 fold. Also, the IC50 in assay [2] (setting [4]) came to 0.52 nM; in assay [3], 59 nM.
`CC(=O)Nc1cc(Nc2cccc(S(C)(=O)=O)c2)c(-c2cnccn2)cn1` [Example A5, N-(4-((3-(methylsulfonyl)phenyl)amino)-5-(pyrazin-2-yl)pyridin-2-yl)acetamide]: in assay [2] (Biochemical assay), the “Selectivity fold (TYK2/JAK1)” value was 120 fold. Also, the IC50 was 0.49 nM in assay [2] (setting [4]) and 59 nM in assay [3].
Regarding `CC(=O)Nc1cc(Nc2cccc(S(C)(=O)=O)c2)c(-c2cc(C)nc(C)n2)cn1` [Example A6, N-(5-(2,6-dimethylpyrimidin-4-yl)-4-((3-(methylsulfonyl)phenyl)amino)pyridin-2-yl)acetamide], in assay [1], the “Selectivity fold (TYK2/JAK2)” value is listed as greater than 196 fold. Moreover, the IC50 in assay [1] is 51 nM; in the assay with pSTAT5/GM-CSF it was greater than 10000 nM; in assay [2] (setting [4]) it was 0.14 nM; in assay [3], 18 nM. Further, the “Selectivity fold (TYK2/JAK1)” value in assay [2] (Biochemical assay) stood at 128 fold.
`CC(=O)Nc1cc(Nc2cccc(S(C)(=O)=O)c2)c(N2CCCC2=O)cn1` [Example A7, N-(4-((3-(methylsulfonyl)phenyl)amino)-5-(2-oxopyrrolidin-1-yl)pyridin-2-yl)acetamide]: the “Selectivity fold (TYK2/JAK1)” value in assay [2] (Biochemical assay) was greater than 14 fold. Moreover, the IC50 in assay [2] (setting [4]) was 670 nM; in assay [3] it was greater than 10000 nM.
For the compound `CC(=O)Nc1cc(Nc2cccc(S(C)(=O)=O)c2)c(-c2ccccn2)cn1` [Example B1, N-(4′-((3-(methylsulfonyl)phenyl)amino)-[2,3′-bipyridin]-6′-yl)acetamide], the “Selectivity fold (TYK2/JAK2)” value in assay [1] is on record as greater than 1011 fold. Also, the IC50 in assay [1] was 9.89 nM; in the assay on pSTAT5/GM-CSF, greater than 10000 nM; in assay [2] (setting [5]), 0.038 nM; in assay [3], 7.4 nM. The “Selectivity fold (TYK2/JAK1)” value in assay [2] (Biochemical assay) was 194 fold.
As for `CC(=O)Nc1cc(Nc2ccccc2)c(-c2ccccn2)cn1` [Example B3, N-(4′-(phenylamino)-[2,3′-bipyridin]-6′-yl)acetamide], in assay [2] (Biochemical assay), the “Selectivity fold (TYK2/JAK1)” value is 8.1 fold. In addition, the IC50 in assay [2] (setting [4]) was 1.1 nM; in assay [3], 9 nM.
For the compound `CC(=O)Nc1cc(Nc2cccc(S(C)(=O)=O)n2)c(-c2ccccn2)cn1` [Example B5, N-(4′-((6-(methylsulfonyl)pyridin-2-yl)amino)-[2,3′-bipyridin]-6′-yl)acetamide], in assay [1], the “fold more potent than Example B1 in cellular assay” value amounted to 40 fold. In addition, the “Selectivity fold (TYK2/JAK2)” value in assay [1] is greater than 41152 fold. Further, the IC50 in assay [1] is 0.243 nM; in the assay on pSTAT5/GM-CSF, greater than 10000 nM; in assay [2] (setting [5]), 0.016 nM; in assay [3], 0.31 nM. Also, the “fold more potent than Example B1 in bio-chemical assay” value in assay [2] worked out at 2 fold. The “Selectivity fold (TYK2/JAK1)” value in assay [2] (Biochemical assay) is listed as 19 fold.
Take `COc1cccc(Nc2cc(NC(C)=O)ncc2-c2ccccn2)c1` [Example B13, N-(4′-((3-methoxyphenyl)amino)-[2,3′-bipyridin]-6′-yl)acetamide]: the “Selectivity fold (TYK2/JAK2)” value in assay [1] is greater than 54 fold. The IC50 in assay [1] is 183 nM; in the assay with pSTAT5/GM-CSF, greater than 10000 nM; in assay [2] (setting [4]), 0.43 nM; in assay [3] it was 18 nM. Moreover, the “Selectivity fold (TYK2/JAK1)” value in assay [2] (Biochemical assay) is given as 42 fold.
Take `CC(=O)Nc1cc(Nc2ncccc2S(C)(=O)=O)c(-c2ccccn2)cn1` [Example B14, N-(4′-((3-(methylsulfonyl)pyridin-2-yl)amino)-[2,3′-bipyridin]-6′-yl)acetamide]: the “Selectivity fold (TYK2/JAK1)” value in assay [2] (Biochemical assay) stood at 1 fold. Further, the IC50 in assay [2] (setting [4]) is 80 nM; in assay [3] it was 145 nM. Further, the “fold less potent (orth vs meta methylsulfonyl; B15 vs B1, B14 vs B5)” value in assay [2] amounted to 5000 fold.
As for `CC(=O)Nc1cc(Nc2ccccc2S(C)(=O)=O)c(-c2ccccn2)cn1` [Example B15, N-(4′-((2-(methylsulfonyl)phenyl)amino)-[2,3′-bipyridin]-6′-yl)acetamide], the “Selectivity fold (TYK2/JAK1)” value in assay [2] (Biochemical assay) is on record as 1 fold. Moreover, the IC50 was determined as 117 nM in assay [2] (setting [4]) and 234 nM in assay [3]. Also, the “fold less potent (orth vs meta methylsulfonyl; B15 vs B1, B14 vs B5)” value in assay [2] is recorded as 3079 fold.
For the compound `CS(=O)(=O)c1cccc(Nc2cc(N)ncc2-c2ccccn2)c1` [Example B19, N4′-(3-(methylsulfonyl)phenyl)-[2,3′-bipyridine]-4′,6′-diamine], in assay [2] (Biochemical assay), the “Selectivity fold (TYK2/JAK1)” value amounted to 14.2 fold. Further, the figures for the IC50 in assay [2] (setting [4]) and in assay [3] were 18 nM and 257 nM, respectively.
Turning to `CS(=O)(=O)c1cccc(Nc2cc(NC(=O)C3CC3)ncc2-c2ccccn2)c1` [Example B20, N-(4′-((3-(methylsulfonyl)phenyl)amino)-[2,3′-bipyridin]-6′-yl)cyclopropanecarboxamide], the “Selectivity fold (TYK2/JAK1)” value in assay [2] (Biochemical assay) is 50 fold. For the same compound, the results for the IC50 in assay [2] (setting [4]) and in assay [3] were 1.5 nM and 76 nM, respectively. Moreover, in assay [2] (compared with Example B1), the “Tyk2 inhibition potency on replacing R methyl (Example B1) by cyclopropane” value is on record as “dramatically decreased”.
Consider `CC(=O)Nc1cc(Nc2cccc(S(C)(=O)=O)c2)c(-c2ccc(N3CCOCC3=O)cn2)cn1` [Example G1, N-(4′-((3-(methylsulfonyl)phenyl)amino)-5-(3-oxomorpholino)-[2,3′-bipyridin]-6′-yl)acetamide], for which the IC50 in assay [1] was 14.4 nM; with pSTAT5/GM-CSF, greater than 10000 nM; in assay [2] (setting [4]), 0.026 nM; in assay [3] it was 4.9 nM. In the assay on pSTAT5/GM-CSF (pSTAT5/GM-CSF vs pSTAT4/IL-12), the “Selectivity fold (TYK2/JAK2)” value is on record as greater than 694 fold. For the same compound, the “Selectivity fold (TYK2/JAK1)” value in assay [3] (JAK1-JH2 vs TYK2-JH2) is given as 188 fold.
In the case of `CC(=O)Nc1cc(Nc2cc(-c3cscn3)cc(S(C)(=O)=O)n2)c(-c2ccc3c(n2)OCC(C)(C)O3)cn1` [Example Q119, N-(5-(2,2-dimethyl-2,3-dihydro-[1,4]dioxino[2,3-b]pyridin-6-yl)-4-((6-(methylsulfonyl)-4-(thiazol-4-yl)pyridin-2-yl)amino)pyridin-2-yl)acetamide], the IC50 in assay [1] turned out to be 1.19 nM; in the assay with pSTAT5/GM-CSF it was 1150 nM; in assay [2] (setting [4]), 0.031 nM. Moreover, in the assay on pSTAT5/GM-CSF (setting [6]), the “Selectivity fold (TYK2/JAK2)” value turned out to be 965 fold.
`CC(=O)Nc1cc(Nc2cccc(S(C)(=O)=O)n2)c(C2=NC(C)(C)CS2)cn1` [Example R1, N-(5-(4,4-dimethyl-4,5-dihydrothiazol-2-yl)-4-((6-(methylsulfonyl)pyridin-2-yl)amino)pyridin-2-yl)acetamide]: the IC50 in assay [1] was 2.18 nM; with pSTAT5/GM-CSF, greater than 10000 nM; in assay [2] (setting [4]), 0.041 nM. The “Selectivity fold (TYK2/JAK2)” value in the assay with pSTAT5/GM-CSF (setting [6]) is given as greater than 4587 fold.
